Reference: ChEMBL document CHEMBL1124431, “Preparation and antitumor activity of additional mitomycin A analogues” (J Med Chem, 1989)

Key:
P388 [1] = assay: Maximal effect of the given optimal dose of 3.2 mg/kg against P388 leukemia cells in mice; type: functional, Mus musculus
[2] = Partition coefficient (logP); type: physicochemical; conditions: octanol/water
P388 [3] = assay: Minimum effective dose was determined on P388 leukemia cells in mice; type: functional, Mus musculus; conditions: for minimal effective dose: Mus musculus, P388, read-out: MED
Mus musculus = organism: Mus musculus; assay: log(1/C) was estimated in mice; type: organism-based; conditions: in vivo
P388 [4] = assay: Maximal effect of the given optimal dose of 0.8 mg/kg against P388 leukemia cells in mice; type: functional, Mus musculus
P388 [5] = assay: Maximal effect of the given optimal dose of 1.6 mg/kg against P388 leukemia cells in mice; type: functional, Mus musculus
P388 [6] = assay: Maximal effect of the given optimal dose of 0.4 mg/kg against P388 leukemia cells in mice; type: functional, Mus musculus
P388 [7] = assay: Maximal effect of the given optimal dose of 12.8 mg/kg against P388 leukemia cells in mice; type: functional, Mus musculus
P388 [8] = assay: Maximal effect of the given optimal dose of 6.4 mg/kg against P388 leukemia cells in mice; type: functional, Mus musculus
B16 [9] = assay: Maximal effect of the given optimal dose of 0.4 mg/kg against B16 melanoma cells in mice; type: organism-based; set-up: dose 0.4 mg/kg; conditions: mouse, in vivo
P388 [10] = assay: Maximal effect of the given optimal dose of 0.2 mg/kg against P388 leukemia cells in mice; type: functional, Mus musculus
B16 [11] = assay: Maximal effect of the given optimal dose of 1.2 mg/kg against B16 melanoma in mice; type: functional, Mus musculus
B16 [12] = assay: Minimum effective dose was determined on B16 melanoma cells in mice; type: functional; conditions: Mus musculus, read-out: MED
B16 [13] = assay: Maximal effect of the given optimal dose of 0.8 mg/kg against B16 melanoma cells in mice; type: functional, Mus musculus
B16 [14] = assay: Maximal effect of the given optimal dose of 1.6 mg/kg against B16 melanoma in mice; type: functional, Mus musculus
B16 [15] = assay: Maximal effect of the given optimal dose of 0.4 mg/kg against B16 melanoma in mice; type: functional, Mus musculus
B16 [16] = assay: Maximal effect of the given optimal dose of 0.8 mg/kg against B16 melanoma in mice; type: functional, Mus musculus
B16 [17] = assay: Maximal effect of the given optimal dose of 0.3 mg/kg against B16 melanoma in mice; type: functional, Mus musculus

Compound | logP [2] | MED (P388 [3]) [M/kg] | minimal effective dose (P388 [3]) [mg/kg] | Log 1/C (Mus musculus) | other results
CO[C@@]12C(COC(N)=O)C3=C(C(=O)C(C)=C(OCc4cccs4)C3=O)N1CC1NC12 (some centres not stated) | 2.07 | 7.13e-06 | 3.2 | 5.15 | T/C (P388 [1]): 159%
COCC(C)OC1=C(C)C(=O)C2=C(C1=O)C(COC(N)=O)[C@@]1(OC)C3NC3CN21 (some centres not stated) | 0.79 | 4.81e-07 | 0.2 | 6.21 | T/C (P388 [4]): 206%
CCOCCOC1=C(C)C(=O)C2=C(C1=O)C(COC(N)=O)[C@@]1(OC)C3NC3CN21 (some centres not stated) | 0.79 | 4.65e-07 | 0.2 | 7.33 | T/C (P388 [5]): 133%
CO[C@@]12C(COC(N)=O)C3=C(C(=O)C(C)=C(OCC4OCCO4)C3=O)N1CC1NC12 (some centres not stated) | -0.18 | 5.88e-07 | < 0.05 | 7.23 | T/C (P388 [6]): 267%
CO[C@@]12C(COC(N)=O)C3=C(C(=O)C(C)=C(OCCN4CCCCC4)C3=O)N1CC1NC12 (some centres not stated) | 1.96 | 8.71e-07 | 0.4 | 6.06 | T/C (P388 [7]): 191%
CO[C@@]12C(COC(N)=O)C3=C(C(=O)C(C)=C(OCCSC)C3=O)N1CC1NC12 (some centres not stated) | 1.37 | 9.57e-07 | 0.4 | 6.02 | T/C (P388 [5]): 165%
CO[C@@]12C(COC(N)=O)C3=C(C(=O)C(C)=C(OCCN4CCCC4)C3=O)N1CC1NC12 (some centres not stated) | 1.46 | 1.13e-07 | < 0.1 | 6.94 | T/C (P388 [8]): 217%; T/C (B16 [9]): 107%
CO[C@@]12C(COC(N)=O)C3=C(C(=O)C(C)=C(OCCCN4CCN(C)CC4)C3=O)N1CC1NC12 (some centres not stated) | 1.16 | 1.265e-05 | 6.4 | 4.9 | T/C (P388 [7]): >167%
CO[C@@]12C(COC(N)=O)C3=C(C(=O)C(C)=C(OCCN4CCSCC4)C3=O)N1CC1NC12 (some centres not stated) | 2.07 | 2.06e-07 | 0.1 | 6.67 | T/C (P388 [8]): >172%
CCN1CCCC1CCOC1=C(C)C(=O)C2=C(C1=O)C(COC(N)=O)[C@@]1(OC)C3NC3CN21 (some centres not stated) | 1.96 | 1.09e-07 | < 0.1 | 6.96 | T/C (P388 [7]): 211%
CO[C@@]12C(COC(N)=O)C3=C(C(=O)C(C)=C(OCCSCc4ccccc4)C3=O)N1CC1NC12 (some centres not stated) | 3.58 | 4.25e-07 | 0.2 | 6.37 | T/C (P388 [8]): 156%
CO[C@@]12C(COC(N)=O)C3=C(C(=O)C(C)=C(OC/C=C/CO)C3=O)N1CC1NC12 (some centres not stated) | 0.46 | 4.83e-07 | 0.2 | 6.21 | T/C (P388 [1]): 150%
CO[C@@]12C(COC(N)=O)C3=C(C(=O)C(C)=C(OCCCN(CCO)CCO)C3=O)N1CC1NC12 (some centres not stated) | -0.28 |  |  |  | T/C (P388 [10]): 106%
CO[C@@]12C(COC(N)=O)C3=C(C(=O)C(C)=C(OC4CCN(C)CC4)C3=O)N1CC1NC12 (some centres not stated) | 1.46 | 7.1e-06 | 3.2 | 5.15 | T/C (P388 [1]): 155%
CO[C@@]12C(COC(N)=O)C3=C(C(=O)C(C)=C(OC4COCOC4)C3=O)N1CC1NC12 (some centres not stated) | 0.31 | 1.18e-07 | < 0.1 | 6.93 | T/C (B16 [11]): 222%; minimal effective dose (B16 [12]): < 0.3 mg/kg; T/C (P388 [5]): 210%
CO[C@@]12C(COC(N)=O)C3=C(C(=O)C(C)=C(OCc4ccccn4)C3=O)N1CC1NC12 (some centres not stated) | 0.91 | 9.2e-07 | 0.4 | 6.04 | T/C (P388 [4]): 164%
CCSCC(O)COC1=C(C)C(=O)C2=C(C1=O)C(COC(N)=O)[C@@]1(OC)C3NC3CN21 (some centres not stated) | 1.25 | 4.33e-07 | 0.2 | 6.37 | T/C (P388 [1]): >322%

Compound | logP [2] | MED (P388 [3]) [M/kg] | minimal effective dose (P388 [3]) [mg/kg] | Log 1/C (Mus musculus) | other results
CO[C@@]12C(COC(N)=O)C3=C(C(=O)C(C)=C(OCCSCCSCCO)C3=O)N1CC1NC12 (some centres not stated) | 1.86 | 1.603e-06 | 0.8 | 5.84 | T/C (P388 [4]): 140%
CO[C@@]12C(COC(N)=O)C3=C(C(=O)C(C)=C(OCCCSCCCO)C3=O)N1CC1NC12 (some centres not stated) | 3.49 | 1.02e-07 | < 0.1 | 6.98 | T/C (P388 [8]): 153%
CO[C@@]12C(COC(N)=O)C3=C(C(=O)C(C)=C(OC4CC4)C3=O)N1CC1NC12 (some centres not stated) | 1.17 | 1.3e-07 | 0.05 | 6.89 | T/C (P388 [1]): 172%; minimal effective dose (B16 [12]): 0.8 mg/kg; T/C (B16 [13]): 138%
CO[C@@]12C(COC(N)=O)C3=C(C(=O)C(C)=C(OCC4COCO4)C3=O)N1CC1NC12 (some centres not stated) | 0.31 | 4.75e-07 | 0.2 | 6.32 | T/C (P388 [6]): 140%
CO[C@@]12C(COC(N)=O)C3=C(C(=O)C(C)=C(OCCNC(C)=O)C3=O)N1CC1NC12 (some centres not stated) | -0.21 | 9.32e-07 | 0.4 | 6.03 | T/C (P388 [7]): 150%
CO[C@@]12C(COC(N)=O)C3=C(C(=O)C(C)=C(OC4CCOCC4)C3=O)N1CC1NC12 (some centres not stated) | 1.29 | 1.17e-07 | < 0.1 | 6.93 | T/C (P388 [1]): 212%; minimal effective dose (B16 [12]): 1.6 mg/kg; T/C (B16 [14]): 135%
CCO[Si](CCCOC1=C(C)C(=O)C2=C(C1=O)C(COC(N)=O)[C@@]1(OC)C3NC3CN21)(OCC)OCC (some centres not stated) |  | 3.59e-07 | 0.2 | 6.44 | T/C (P388 [7]): 167%
CO[C@@]12C(COC(N)=O)C3=C(C(=O)C(C)=C(OCCC4OCCCO4)C3=O)N1CC1NC12 (some centres not stated) | 0.82 |  |  |  | T/C (P388 [10]): 117%; T/C (B16 [15]): 154%; minimal effective dose (B16 [12]): < 0.3 mg/kg
CCOC(=O)CCCOC1=C(C)C(=O)C2=C(C1=O)C(COC(N)=O)[C@@]1(OC)C3NC3CN21 (some centres not stated) | 1.49 | 1.41e-05 | 6.4 | 4.85 | T/C (P388 [7]): 171%
COCC(O)COC1=C(C)C(=O)C2=C(C1=O)C(COC(N)=O)[C@@]1(OC)C3NC3CN21 (some centres not stated) | -0.59 | 1.16e-07 | < 0.1 | 6.94 | T/C (P388 [4]): 222%; minimal effective dose (B16 [12]): 0.2 mg/kg; T/C (B16 [16]): 211%
CO[C@@]12C(COC(N)=O)C3=C(C(=O)C(C)=C(OCCC4CCCN4C)C3=O)N1CC1NC12 (some centres not stated) | 1.46 | 7.033e-06 | 3.2 | 5.21 | T/C (P388 [7]): >156%
CO[C@@]12C(COC(N)=O)C3=C(C(=O)C(C)=C(OCCOCCCl)C3=O)N1CC1NC12 (some centres not stated) | 1.18 | 6.2e-08 | < 0.05 | 7.21 | T/C (P388 [1]): 183%; minimal effective dose (B16 [12]): 0.4 mg/kg; T/C (B16 [13]): 169%
CO[C@@]12C(COC(N)=O)C3=C(C(=O)C(C)=C(OCCSc4ccccc4)C3=O)N1CC1NC12 (some centres not stated) | 3.12 | 6.73e-06 | 3.2 | 5.17 | T/C (P388 [7]): 130%
CO[C@@]12C(COC(N)=O)C3=C(C(=O)C(C)=C(OCCOc4ccccc4)C3=O)N1CC1NC12 (some centres not stated) | 2.39 | 3.516e-06 | 1.6 | 5.45 | T/C (P388 [1]): 130%
CO[C@@]12C(COC(N)=O)C3=C(C(=O)C(C)=C(OCC4CC4)C3=O)N1CC1NC12 (some centres not stated) | 1.67 | 1.028e-06 | 0.4 | 5.97 | T/C (P388 [5]): 144%
COC1=C(C)C(=O)C2=C(C1=O)[C@@H](COC(N)=O)[C@@]1(OC)[C@H]3N[C@H]3CN21 [MITOMYCIN A] |  | 1.43e-07 | 0.05 | 6.84 | T/C (P388 [1]): 180%; minimal effective dose (B16 [12]): 0.05 mg/kg; T/C (B16 [17]): 177%
